Laboratory results from US6653306B1, “Epoxy-steroidal aldosterone antagonist and angiotensin II antagonist combination therapy” (G.D. Searle & Co., priority 1995, dated 2003).

Assays:
[1] = biological target: angiotensin II AT1 receptor; assay: Assay A: Angiotensin II binding activity (125I-AII displacement, rat uterine membrane preparation)
Protocol: Assay A: Antiotensin II Binding Activity
Compounds of the invention were tested for ability to bind to the smooth muscle angiotensin II receptor using a rat uterine membrane preparation. […] Rat uterine membranes were prepared from fresh tissue. All procedures were carried out at 4° C. Uteri were stripped of fat and homogenized in phosphate-buffered saline at pH 7.4 containing 5 mM EDTA. The homogenate was centrifuged at 1500×g for 20 min., and the supernatant was recentrifuged at 100,000×g for 60 min. The pellet was resuspended in buffer consisting of 2 mM EDTA and 50 mM Tris-HCl (pH 7.5) to a final protein concentration of 4 mg/ml. […] The reaction was initiated by the addition of membrane protein and the mixture was incubated at 25° C. for 60 min. The incubation was terminated with ice-cold 50 mM Tris-HCl (pH 7.5) and the mixture was filtered to separate membrane-bound labelled peptide from the free ligand. The incubation tube and filter were washed with ice-cold buffer. Filters were assayed for radioactivity in a Micromedic gamma counter.
Nonspecific binding was defined as binding in the presence of 10 μM of unlabelled AII. Specific binding was calculated as total binding minus nonspecific binding. […] Binding data were analyzed by a nonlinear least-squares curve fitting program.

[2] = tested on: pressor response to AII; assay: Assay C: In vivo intragastric pressor assay response for AII antagonists; parameters: species or system rat; settings: intragastric, or intraduodenal for examples listed; for inhibition at 3 mg/kg / Assay C Duration: dose 3 mg/kg
Protocol: Assay C: In Vivo Intragastric Pressor Assay Response for AII Antagonists
Male Sprague-Dawley rats weighing 225-300 grams were anesthetized with methohexital (30 mg/kg, i.p.) and catheters were implanted into the femoral artery and vein. The catheters were tunneled subcutaneously to exit dorsally, posterior to the head and between the scapulae. The catheters were filled with heparin (1000 units/ml of saline). The rats were returned to their cage and allowed regular rat chow and water ad libitum. After full recovery from surgery (3-4 days), rats were placed in Lucite holders and the arterial line was connected to a pressure transducer. Arterial pressure was recorded on a Gould polygraph (mmHg). Angiotensin II was administered as a 30 ng/kg bolus via the venous catheter delivered in a 50 μl volume with a 0.2 ml saline flush. The pressor response in mm Hg was measured by the differer.-:e from pre-injection arterial pressure to the maximum pressure achieved. The AII injection was repeated every 10 minutes until three consecutive injections yielded responses within 4 mmHg of each other. These three responses were then averaged and represented the control response to AII. The test compound was suspended in 0.5% methylcellulose in water and was administered by gavage. The volume administered was 2 ml/kg body weight. The standard dose was 3 mg/kg. Angiotensin II bolus injections were given at 30, 45, 60, 75, 120, 150, and 180 minutes after gavage. The pressor response to AII was measured at each time point. The rats were then returned to their cage for future testing. A minimum of 3 days was allowed between tests. Percent inhibition was calculated for each time point following gavage by the following formula:
[(Control Response—Response at time point)/Control Response]×100.

SMILES	IC50 [1]	Assay C Inhibition ([2]; dose cell empty (dose not given))	inhibition at 3 mg/kg ([2]; Rattus norvegicus)	Assay C Duration [2]	inhibition at 10 mg/kg ([2]; Rattus norvegicus)	inhibition at 30 mg/kg ([2]; Rattus norvegicus)	inhibition at 100 mg/kg ([2]; Rattus norvegicus, dose 100 mg/kg)
CCCCc1nn(CC(=O)c2ccccc2)c(=O)n1Cc1ccc(-c2ccccc2-c2nn[nH]n2)cc1 [Compound 82]	7.9 nM	20%					
CCCCn1nc(CCc2cccs2)nc1Cc1ccc(-c2ccccc2-c2nnn[nH]2)nc1 [Compound 153]	13 nM		25%	>180 min			
CCCCn1nc(C(O)CCC)nc1Cc1ccc(-c2ccccc2-c2nnn[nH]2)nc1 (stereo not drawn) [Compound 159]	21 nM		10%	150 min			
CCCCn1nc(C(F)(F)CCC)nc1Cc1ccc(-c2ccccc2-c2nnn[nH]2)nc1 [Compound 170]	26 nM		40%	>180 min			
CCCCn1nc(C(=O)N(C)C(C)(C)C)nc1Cc1ccc(-c2ccccc2-c2nnn[nH]2)nc1 [Compound 171]	28 nM		0%	0 min			
CCCCn1nc(C(OC)OC)nc1Cc1ccc(-c2ccccc2-c2nnn[nH]2)nc1 [Compound 175]	27 nM		0%	0 min			
CCCCn1nc(C2OCCCO2)nc1Cc1ccc(-c2ccccc2-c2nnn[nH]2)nc1 [Compound 180]	20 nM		25%	180 min			
CCCCn1nc(C2OCC(C)(C)CO2)nc1Cc1ccc(-c2ccccc2-c2nnn[nH]2)nc1 [Compound 181]	21 nM		20%	180 min			
CCCCc1cn(CCCC)c(=O)n1Cc1ccc(-c2ccccc2-c2nnn[nH]2)nc1 [Compound 185]	6.5 nM		50%	>180 min			
CCCc1cn(CCC)c(=O)n1Cc1ccc(-c2ccccc2-c2nnn[nH]2)nc1 [Compound 186]	38 nM		25%	180 min			
CCCCCc1cn(CCCC)c(=O)n1Cc1ccc(-c2ccccc2-c2nnn[nH]2)nc1 [Compound 190]	10 nM		10%	180 min			
CCCCc1nc(CCCC)n(Cc2ccc(-c3ccccc3-c3nnn[nH]3)nc2)n1 [Compound 241]			40%				
CCCCc1nc(CCCC)n(Cc2ccc(-c3ccccc3C(=O)O)cc2)n1 [compound 2]					95%	98%	
CCCCc1nc(CCCC)n(Cc2ccc(-c3ccccc3-c3nnn[nH]3)cc2)n1 [compound 3]					50%	100%	
CCCCc1nc(CCCC)n(Cc2ccc(-c3ccccc3C(=O)NNS(=O)(=O)C(F)(F)F)cc2)n1 [compound 5]						38%	
CCCCc1nc(Cl)n(Cc2ccc(-c3ccccc3-c3nnn[nH]3)cc2)n1 [compound 9]						80%	100%
CCCCc1nc(C(F)(F)CCC)nn1Cc1ccc(-c2ccccc2-c2nnn[nH]2)cc1 [compound 10]			86%			100%	

Continued, in another order:

IC50 [1]	SMILES	Assay C Inhibition ([2]; dose cell empty (dose not given))	inhibition at 3 mg/kg ([2]; Rattus norvegicus)	Assay C Duration [2]	inhibition at 10 mg/kg ([2]; Rattus norvegicus)	inhibition at 30 mg/kg ([2]; Rattus norvegicus)	inhibition at 100 mg/kg ([2]; Rattus norvegicus, dose 100 mg/kg)
81 nM	CCCCn1cc(C2CCCCC2)n(Cc2ccc(-c3ccccc3-c3nnn[nH]3)nc2)c1=O [Compound 191]		10%	180 min			
11 nM	CCCCn1cc(CCC2CC2)n(Cc2ccc(-c3ccccc3-c3nnn[nH]3)nc2)c1=O [Compound 193]		10%	180 min			
7.6 nM	CCCCc1cn(CCC(C)C)c(=O)n1Cc1ccc(-c2ccccc2-c2nnn[nH]2)nc1 [Compound 198]		35%	>180 min			
10 nM	CCCCCn1cc(CCCC)n(Cc2ccc(-c3ccccc3-c3nnn[nH]3)nc2)c1=O [Compound 199]		60%	>180 min			
20 nM	CCCCc1cn(C(C)C)c(=O)n1Cc1ccc(-c2ccccc2-c2nnn[nH]2)nc1 [Compound 200]		45%	>180 min			
17 nM	CCCCc1cn(C(C)(C)C)c(=O)n1Cc1ccc(-c2ccccc2-c2nnn[nH]2)nc1 [Compound 201]		10%	180 min			
12 nM	CCCCc1cn(CC(C)(C)C)c(=O)n1Cc1ccc(-c2ccccc2-c2nnn[nH]2)nc1 [Compound 202]		65%	>180 min			
9.2 nM	CCCCc1cn(CCC(C)(C)C)c(=O)n1Cc1ccc(-c2ccccc2-c2nnn[nH]2)nc1 [Compound 203]		50%	>180 min			
16 nM	CCCCc1cn(CC(CC)CC)c(=O)n1Cc1ccc(-c2ccccc2-c2nnn[nH]2)nc1 [Compound 204]		75%	>180 min			
20 nM	CCCCc1cn(C2CCCCC2)c(=O)n1Cc1ccc(-c2ccccc2-c2nnn[nH]2)nc1 [Compound 205]		40%	>180 min			
5.4 nM	CCCCc1cn(CCC2CC2)c(=O)n1Cc1ccc(-c2ccccc2-c2nnn[nH]2)nc1 [Compound 206]		30%	>180 min			
22 nM	CCCCc1cn(CC2CCCC2)c(=O)n1Cc1ccc(-c2ccccc2-c2nnn[nH]2)nc1 [Compound 208]		50%	>180 min			
5 nM	CCCCc1cn(CCc2cccs2)c(=O)n1Cc1ccc(-c2ccccc2-c2nnn[nH]2)nc1 [Compound 209]		25%	>180 min			
3.6 nM	CCCCc1cn(CCc2ccccc2)c(=O)n1Cc1ccc(-c2ccccc2-c2nnn[nH]2)nc1 [Compound 210]		15%	180 min			
18 nM	CCCCc1cn(CCC2CCCC2)c(=O)n1Cc1ccc(-c2ccccc2-c2nnn[nH]2)nc1 [Compound 211]		35%	>180 min			
23 nM	CCCCc1cn(CCC2=CCCC2)c(=O)n1Cc1ccc(-c2ccccc2-c2nnn[nH]2)nc1 [Compound 212]		15%	180 min			
5.4 nM	CCCCc1cn(-c2ccccc2Cl)c(=O)n1Cc1ccc(-c2ccccc2-c2nnn[nH]2)nc1 [Compound 216]		50%	>180 min			
9.4 nM	CCCCc1cn(-c2ccccc2C)c(=O)n1Cc1ccc(-c2ccccc2-c2nnn[nH]2)nc1 [Compound 217]		65%	>180 min			
7 nM	CCCCc1cn(-c2c(F)cccc2F)c(=O)n1Cc1ccc(-c2ccccc2-c2nnn[nH]2)nc1 [Compound 220]		75%	120 min			
4.8 nM	CCCCc1cn(-c2c(Cl)cccc2Cl)c(=O)n1Cc1ccc(-c2ccccc2-c2nnn[nH]2)nc1 [Compound 221]		25%	>180 min			
14 nM	CCCCc1cn(CCCC)c(=O)n1Cc1ccc(-c2ccccc2-c2nnn[nH]2)cn1 [Compound 223]		20%	>180 min			
4.5 nM	CCCCc1cn(-c2ccccc2CC)c(=O)n1Cc1ccc(-c2ccccc2-c2nnn[nH]2)nc1 [Compound 228]		80%	>180 min			
19 nM	CCCCc1cn(-c2ccccc2C(C)(C)C)c(=O)n1Cc1ccc(-c2ccccc2-c2nnn[nH]2)nc1 [Compound 229]		40%	>180 min			
290 nM	CCCCc1nc(-c2ccccc2OC)n(Cc2ccc(-c3ccccc3-c3nnn[nH]3)nc2)n1 [Compound 266]						
9.7 nM	CCCCc1nc(-c2c(F)cccc2F)nn1Cc1ccc(-c2ccccc2-c2nnn[nH]2)nc1 [Compound 269]						
21 nM	CCCCc1nc(-c2c(F)cccc2F)n(Cc2ccc(-c3ccccc3-c3nnn[nH]3)nc2)n1 [Compound 270]						
